Source: patent US20070274923A1, “Non-invasive real-time in vivo bioluminescence imaging of local Ca2+ dynamics in living organisms” (priority 2005, published 2007)

Tests used:
cortical neurons = assay: Single-cell bioluminescence imaging of transfected cortical neurons; type: cell-based; conditions: cortical neurons with non-targeted GA reconstituted with h coelenterazine
Description: Cultures were plated on to glass-bottomed dishes and mounted to a stage adapter on a fully automated inverted microscope mounted in a black-box. GFP-Aequorin was reconstituted with 2.5-5 μM coelenterazine for 30 minutes at 37° C. Incubation of cells with coelenterazine that had been transfected with SynGA was undertaken at room temperature to reduce the consumption of the photoprotein during the reconstitution process. Cells were perfused with tyrodes buffer. Prior to bath application of NMDA, cells were perfused for 1 minute without Mg^2+. All recordings were made at room temperature (22-25° C.). […]
The fluorescence/bioluminescence wide field microscopy system was custom built by ScienceWares, Inc. The system includes a fully automated inverted microscope (200M, Zeiss Germany) and is housed in a light-tight dark box. […] Low level light emission (photon rate<100 kHz), was collected using an Image Photon Detector (IPD 3, Photek Ltd.) connected to the baseport of the microscope, which assigns an X, Y coordinate and time point for each detected photon (Miller et al., 1994). The system is fully controlled by the data acquisition software, which also converts single photon events into an image that can be superimposed with brightfield or fluorescence images made by a connected CCD camera to the C-port (Coolsnap HQ, Roper Scientific). […]

[1] = test system: Ca^2+ oscillations in somatosensory cortex slices; assay: Mitochondrial Ca2+ oscillations in organotypic somatosensory cortex slices of mtGA transgenic mice (bioluminescence imaging); type: cell-based, mouse; conditions: 50 μM; oscillations generated by removal of Mg2+ from buffer; slices of P4 mtGA mice

[Cl-].[K+] [KCl]
Ca2+-induced bioluminescence signal (cortical neurons; 90 mM): robust signal

CN[C@H](CC(=O)O)C(=O)O [NMDA]
Ca2+-induced bioluminescence signal (cortical neurons; 100 μM): robust signal

N[C@H](CCCP(=O)(O)O)C(=O)O [D-APV]
effect on Ca2+ oscillations detected within the mitochondrial matrix [1]: completely and reversibly blocked
